Earlier results on four compounds are cited in patent US20070281995A1, “Creatine analog prodrugs, compositions and uses thereof” (XenoPort, Inc., priority 2006, published 2007).

Where two headings read alike, the source gives them in different places.

The conditions of data set [1]: animals fed a diet containing up to 1%.
For data set [2] the following is noted: healthy volunteers, oral creatine administration.
Experiment in data set [3]: not given
The source holds these as a separate data set.

On to `CN(CC(=O)O)C(=N)N.O` [creatine monohydrate], for which the adverse side effects result (athletes and body builders, 2-3 gm/day) is on record as “without adverse side effects”.

With `NC1=NCCN1CC(=O)O` [cyclocreatine], the adverse effects entry in data set [1] is listed as “do not exhibit adverse effects”.

Take `CN(CC(=O)O)C(=N)N` [creatine, Creatine]: the “increase of cerebral creatine phosphate” value in data set [2] is “about 10%”. Further, the “overall increase in creatine phosphate levels” value in data set [3] (creatine supplementation, typically takes weeks) is given as below 50%. Further, the “duration of increases in tissue creatine phosphate levels” value in data set [3] (following oral creatine supplementation) is above 14 days.

For `CN(CC(=O)O)C(=N)NP(=O)(O)O` [creatine phosphate], the adverse side effects result (patients with cardiac diseases, intravenous injection up to 8 gm/day) is listed as “without adverse side effects”.
